Entries after “also recorded” stand apart in the source; their conditions may differ. Counter-ions that a name gives are not always drawn. Like-named read-outs stand apart in the source and are kept apart here. Values belong to the molecule of their own block, whether it stands above or below them.
Tests used:
[1] = target: T1, dopamine D-1 receptor (rat striatal homogenate) (Rattus norvegicus, UniProt P18901); test: Saturation binding of radioiodinated ligand to rat striatal homogenate; conditions: for affinity to rat striatal homogenate / Kd compared with [^125 I]IBZP (R-(+), active form): in words; for Kd compared with [^125 I]IBZP (R-(+), active form): similar conditions; for Kd: specific binding, rat striatal homogenate, racemic mixture
T1 construct: Striatal tissues were excised, pooled and homogenized; from tissue; host or cells: striatum of male Sprague-Dawley rats
T1 sequence (P18901 whole entry): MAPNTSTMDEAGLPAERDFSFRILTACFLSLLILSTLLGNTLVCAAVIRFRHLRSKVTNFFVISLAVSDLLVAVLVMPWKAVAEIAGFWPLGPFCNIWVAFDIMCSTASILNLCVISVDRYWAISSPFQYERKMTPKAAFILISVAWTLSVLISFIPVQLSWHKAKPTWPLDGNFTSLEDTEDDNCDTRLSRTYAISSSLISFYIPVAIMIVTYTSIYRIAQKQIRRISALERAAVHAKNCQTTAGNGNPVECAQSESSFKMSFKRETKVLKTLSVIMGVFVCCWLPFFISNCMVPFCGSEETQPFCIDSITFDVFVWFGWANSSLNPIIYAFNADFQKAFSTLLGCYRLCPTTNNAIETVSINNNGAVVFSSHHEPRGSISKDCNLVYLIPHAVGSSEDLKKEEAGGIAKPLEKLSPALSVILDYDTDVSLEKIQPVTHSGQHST
Procedure: (§1) Male Sprague-Dawley rats (200-250g) were decapitated, and the brains were removed and placed in ice. Striatal tissues were excised, pooled and homogenized in 100 volumes(w/v) of ice-cold Tris-HCl buffer (50 mM), pH 7.4. The homogenates were centrifuged at 20,000×g for 20 min. The resultant pellets were rehomogenized in the same buffer and centrifuged again. The final pellets were resuspended in assay buffer containing: 50 mM Tris buffer pH 7.4, 120 mM NaCl, 5 mM KCl, 2mM CaCl2 and 1 mM MgCl2.
(§2) The binding assays were performed by incubating 50 μl of tissue preparations containing 40-60μg of protein with appropriate amounts of [^125 l]FISCH ligand and competitors in a total volume of 0.2 ml of the assay buffer. After an incubation period of 20 min at 37° C. (with stirring), the samples were rapidly filtered in the cell harvester (Brandel M-24R) under vacuum through Whatman GF/B glass fiber filters pretreated with 0.2% protamine sulfate and washed with 3×5ml of cold (4° C.) 50 mM Tris-HCl buffer, pH 7.4. […] The filters were counted in a gamma counter (Beckman 5500) at an efficiency of 70%.
(§3) Both Scatchard and competition experiments were analyzed using the iterative non-linear least squares curve-fitting program LIGAND.

[2] = target: T2, dopamine D-1 receptor (rat striatal membranes) (Rattus norvegicus, UniProt P18901); test: Competition: inhibition of [^125 I]FISCH binding to rat striatal membranes; conditions: for Ki: 0.15-0.30 nM [^125 I]FISCH, rat striatal membranes, three to five determinations, read-out: ki (mean + SEM)
T2 construct: Striatal tissues were excised, pooled and homogenized; from tissue; host or cells: striatum of male Sprague-Dawley rats
T2 sequence (P18901 whole entry): as above
Procedure: indicated compounds in 7-11 concentrations and of membrane preparation
from rat striatum. Each value represenets the mean ± SEM of three to
as §1, §2, §3

D-1 dopamine receptors [3] = conditions: rat, in vivo; for striatum/cerebellum (ST/CB) ratio: iv
Procedure: Regional brain distribution in rats was obtained after an iv injection of [^125 l]FISCH. By dissecting, weighing and counting samples from different brain regions (cortex, striatum, hippocampus and cerebellum), % dose/gram of samples was calculated by comparing the sample counts with the counts of the diluted initial dose. The uptake ratio of each region was obtained by dividing % dose/gram of each region with that of the cerebellum.

[4] = Biodistribution in rats of [^125 I]FISCH after iv injection; format: in vivo, male Sprague Dawley rats; conditions: rat; for brain uptake: iv
Procedure: Biodistribution of [^125 l]FISCH was studied in male Sprague Dawley rats (225-300g) which were allowed free access to food and water. While under halothane anesthesia, 0.2 ml of a saline solution containing [^125 l]FISCH was injected directly into the femoral vein, and the rats were sacrificed at various time points post injection by cardiac excision under halothane anesthesia. The organs of interest were removed, weighed and radioactivity was counted using a Beckman gamma automatic counter (Model 4000). The percent dose per organ was calculated by a comparison of the tissue counts to suitably diluted aliquots of the injected material. Total activities of blood and muscle were calculated assuming that they are 7% and 40% of total body weight, respectively.

D-1 receptors = test: Activity of optically resolved isomers of FISCH; conditions: optical resolution of FISCH isomers
Excerpt: The compounds of this invention can exist as either R- or S- isomers. It is important to note that the aforementioned data were obtained using a racemic mixture of FISCH.

D-1 dopamine receptors [5] = conditions: cited from earlier work
[6] = target: central D-1 dopamine receptors; conditions: cited from earlier work; for Kd: in vitro binding, rat striatum tissue preparation
[7] = cited from earlier work
[8] = target: T2, dopamine D-1 receptor (rat striatal membranes); test: Competition: inhibition of [^125 I]TISCH binding to rat striatal membranes; conditions: for Ki: [^125 I]TISCH, rat striatal membranes, read-out: ki (mean + SEM)
Procedure: as §1, §2, §3

D-1 receptor = conditions: ^11 C label, PET, human brain; cited from earlier work

SMILES: CN1CCc2cc(Cl)c(O)cc2C(c2ccc([125I])cc2)C1 (racemic) [FISCH, (±)-8-chloro-2,3,4,5-tetrahydro-3-methyl-5-(4'-[^125 I]iodophenyl) -1H-3-benzazepine-7-ol]
nonspecific binding ([1]; at Kd, rat striatum, FIG. 2): approximately 15%
affinity to rat striatal homogenate [1]: high affinity
Kd compared with [^125 I]IBZP (R-(+), active form) [1]: comparable
selectivity for dopamine D-1 receptor ([2]; in words, from Tables 2 and 3): high selectivity
ST/CB ratio, change with time (D-1 dopamine receptors [3]): dramatic increase with time
striatum/cerebellum (ST/CB) ratio (D-1 dopamine receptors [3]; 2 min): 1.24
striatum/cerebellum (ST/CB) ratio (D-1 dopamine receptors [3]; 15 min): 1.80
striatum/cerebellum (ST/CB) ratio (D-1 dopamine receptors [3]; 60 min): 2.47
lung clearance ([4]; fifteen and sixty minutes): rapid clearance
brain uptake / blood-brain barrier passage ([4]; in words): good brain uptake in rats; also recorded: passes through the blood-brain barrier with ease
in vivo stability (deiodination) compared with [^125 I]IBZP ([4]; in words): better in vivo stability
lung uptake ([4]; initial): High initial uptake
brain uptake ([4]; one hour after injection): 0.55 % dose/organ
brain uptake ([4]; two minutes after injection): 2.27 % dose/organ
brain retention compared with [^125 I]IBZP ([4]; one hour post injection): much better
thyroid uptake ([4]; one hour post injection): 0.04%
liver uptake ([4]; throughout the first hour): remains high throughout the first hour

SMILES: CN1CCc2cc(Cl)c(O)cc2[C@@H](c2ccc(I)cc2)C1 [R+ isomer]
activity of isomer (D-1 receptors): active

SMILES: CN1CCc2cc(I)c(O)cc2[C@@H](c2ccccc2)C1 [IBZP]
blockade of specific uptake regions by pretreatment with SCH-23390 (D-1 dopamine receptors [5]; in vivo autoradiography): can be blocked by pretreatment with SCH-23390
regional distribution in rat brain (caudate putamen, accumbens nucleus and substantia nigra) (D-1 dopamine receptors [5]; in vivo autoradiography): high uptake
uptake ratio of striatum/cerebellum (D-1 dopamine receptors [5]; rat, thirty seconds after injection): 1.1
uptake ratio of striatum/cerebellum (D-1 dopamine receptors [5]; rat, two hours after injection): 5.3
striatum/cerebellum uptake ratio, change with time (D-1 dopamine receptors [5]; rat): increased with time
Kd [6]: 0.7 nM
selectivity/specificity for central D-1 dopamine receptors ([6]; in words): high specificity for central D-1 dopamine receptors
in vivo and in vitro stability ([7]; in words, deiodination): poor in vivo and in vitro stability
retention time in the brain ([7]; in words): short retention time in the brain
brain uptake ([7]; rat, iv, 2 minutes post injection): 2.7 %dose/organ
brain uptake ([7]; rat, iv, 15 minutes post injection): 1.2 %dose/organ
brain uptake ([7]; rat, iv, 30 minutes post injection): 0.8 %dose/organ
brain uptake ([7]; rat, iv, 60 minutes (one hour) post injection): 0.26 %dose/organ
brain localization ([7]; rat, iv): good localization in rat brains
thyroid uptake ([7]; rat, later time points): high at later time points
thyroid uptake ([7]; rat, one hour post injection): 0.1%

SMILES: CN1CCc2cc(I)c(O)cc2C(c2ccccc2)C1 (racemic) [(±) IBZP, reference compound]
Ki [2]: 13.4 ± 0.54 nM

SMILES: CN1CCc2cc(Cl)c(O)cc2C(c2ccc(I)cc2)C1 (racemic) [FISCH, (±)-8-chloro-2,3,4,5-tetrahydro-3-methyl-5-(4'-[^125 I]iodophenyl) -1H-3-benzazepine-7-ol]
Kd [1]: 1.43 nM
Ki [2]: 1.71 ± 0.17 nM
Ki [8]: 2.07 ± 0.35 nM

SMILES: CN1CCc2ccc(O)cc2[C@@H](c2ccccc2)C1 [SKF-83692]
Kd [6]: 197 nM

SMILES: CN1CCc2cc(Cl)c(O)cc2[C@@H](c2ccccc2)C1 [SCH-23390, R-(+)-8-chloro-2,3,4,5-tetrahydro-3-methyl5-phenyl-1H-3-benzazepine-7-ol]
Kd [6]: 0.36 nM
regional brain concentration (D-1 receptor): highest concentration in the basal ganglia area

The next lines start with the values.

Ki [2]: 1270 ± 203 nM
SMILES: COc1cccc(OC)c1OCCNCC1COc2ccccc2O1 (stereo not drawn) [WB 4101, 2(2,6-dimethoxyphenoxyethyl)-aminomethyl-1,4-benzodioxane hydrochloride, reference compound]

affinity to rat striatal homogenate [1]: high affinity
Kd compared with [^125 I]IBZP (R-(+), active form) [1]: comparable
Kd [1]: 0.35 nM
Ki [8]: 0.55 ± 0.05 nM
selectivity for dopamine D-1 receptor ([8]; in words, from Tables 2 and 3): high selectivity
SMILES: CN1CCc2cc(Cl)c(O)cc2C(c2cccc(I)c2)C1 (stereo not drawn) [TISCH]

activity of isomer (D-1 receptors): inactive
SMILES: CN1CCc2cc(Cl)c(O)cc2[C@H](c2ccc(I)cc2)C1 [S- isomer]
